One may read the EC50 as the concentration giving half of the maximal effect. For orientation: IC50 means the point on the concentration scale where inhibition reaches its midpoint. By Ki is commonly meant the equilibrium dissociation constant of an inhibitor or competing ligand from its target.

Structures are written as SMILES. Activity calls are given as the source filed them.

For one experiment, the target named is Hexokinase-1 (Homo sapiens, UniProt P19367). As to the kind of experiment: HK1 enzyme activation by HKDC1 hits – biochemical, selectivity assay for HKDC1 activator project, dose response (AID 504762). The experiment is classed as functional.
Experiment [1] can be described thus: cells. The experiment is classed as functional.
Experiment [2] concerns the target Peroxisome proliferator-activated receptor gamma/Nuclear receptor coactivator 1 (Homo sapiens, UniProt P37231). The experiment is classed as functional.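 Note: agonist potency as compounds enhance coactivator SRC-1 recruitment to PPARgamma.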
Experiment [3] can be described thus: Luminescence Cell-Based Dose Response HTS to Identify Activators of Luciferase Translation or Activity in H4 […] Cells. [Related pubchem assays: 1829 (Project Summary), 1814 (Primary HTS)]. The experiment is classed as functional.
In a further experiment the target is Estrogen receptor beta (Homo sapiens, UniProt Q92731). The experiment can be described thus: blockers of SRC-3 recruitment to ERβ – biochemical, ELISA, streptavidin-HRP readout, orthogonal assay, confirmation (AID 1060).
The target of experiment [4] is Induced myeloid leukemia cell differentiation protein Mcl-1 (Homo sapiens, UniProt Q07820). The experiment is classed as functional.
The next experiment concerns the target Beta-galactosidase (Escherichia coli, UniProt Q8VNN2). The experiment can be described thus: detection-enzyme interference by beta-gal modulators – biochemical, E. coli enzyme, set 3, artefact control for CCR6 antagonist project, dose response (AID 504712). The experiment is classed as functional.
Experiment [5] concerns the target T1, Rac GTPase-activating protein 1 (Homo sapiens, UniProt Q9H0H5).
T1 sequence (Q9H0H5 whole entry): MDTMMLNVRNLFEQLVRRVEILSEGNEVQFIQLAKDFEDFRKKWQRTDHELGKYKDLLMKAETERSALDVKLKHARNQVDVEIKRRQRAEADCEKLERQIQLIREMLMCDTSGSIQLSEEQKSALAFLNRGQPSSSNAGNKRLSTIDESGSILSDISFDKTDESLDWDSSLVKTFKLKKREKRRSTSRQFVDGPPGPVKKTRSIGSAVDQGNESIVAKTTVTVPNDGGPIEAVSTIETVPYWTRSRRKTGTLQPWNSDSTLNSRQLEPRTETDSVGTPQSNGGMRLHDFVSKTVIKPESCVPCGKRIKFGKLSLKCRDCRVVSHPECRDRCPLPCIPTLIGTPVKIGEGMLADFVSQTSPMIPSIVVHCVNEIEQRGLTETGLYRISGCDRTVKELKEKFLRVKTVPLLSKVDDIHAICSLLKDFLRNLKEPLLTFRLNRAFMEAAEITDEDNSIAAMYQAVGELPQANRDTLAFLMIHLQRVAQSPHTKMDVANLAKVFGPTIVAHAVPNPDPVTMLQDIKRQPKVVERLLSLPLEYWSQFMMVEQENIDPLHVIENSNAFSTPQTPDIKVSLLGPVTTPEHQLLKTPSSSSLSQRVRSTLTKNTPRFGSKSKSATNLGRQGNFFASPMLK
The experiment can be described thus: blockers of MgcRacGAP-driven Rac1 GTP hydrolysis – biochemical, ADP Hunter fluorescence, primary and confirmatory, confirmation (AID 624330). The experiment is classed as functional.

Experiment [6] deals with Hepatocyte nuclear factor 4-alpha (Homo sapiens, UniProt P41235). The experiment is classed as functional, cell-based.
Experiment [7] can be described thus: cells. The experiment is classed as functional, cell-based.
Experiment [8] has as its target Tyrosine-protein kinase JAK2 (Homo sapiens, UniProt O60674). The experiment is classed as functional.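 Note: JAK2 tested as one member of a kinase panel.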
Experiment [9] deals with Protein kinase C zeta type (Homo sapiens, UniProt Q05513). The experiment is classed as functional.
For experiment [10], the target named is PAS domain-containing serine/threonine-protein kinase (Homo sapiens, UniProt Q96RG2). The experiment is classed as functional.
Experiment [11] concerns the target Serine/threonine-protein kinase PLK4 (Homo sapiens, UniProt O00444). The experiment is classed as functional.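 Note: PLK4 measured as one member of a kinome-wide kinase profiling panel.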
Experiment [12] deals with Proto-oncogene tyrosine-protein kinase receptor Ret (Homo sapiens, UniProt P07949). The experiment is classed as functional.
For experiment [13], the target named is Calcium/calmodulin-dependent protein kinase type II subunit gamma (Homo sapiens, UniProt Q13555). The experiment is classed as functional.
For experiment [14], the target named is Serine/threonine-protein kinase D3 (Homo sapiens, UniProt O94806). The experiment is classed as functional.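 Note: determined within a kinase panel screen, with PRKCN as the panel member.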
In experiment [15] the target is Serine/threonine-protein kinase 17A (Homo sapiens, UniProt Q9UEE5). The experiment is classed as functional.
Experiment [16] deals with Tyrosine-protein kinase Lck (Homo sapiens, UniProt P06239). The experiment is classed as functional.
A further experiment concerns the target SRSF protein kinase 1 (Homo sapiens, UniProt Q96SB4). The experiment is classed as functional.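 Note: measured as one member of a kinome-wide kinase profiling panel.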
Experiment [17] addresses Mitogen-activated protein kinase 8 (Homo sapiens, UniProt P45983). The experiment is classed as functional.
Experiment [18] deals with Tyrosine-protein kinase BTK (Homo sapiens, UniProt Q06187). The experiment is classed as functional.
Experiment [19] deals with Serine/threonine-protein kinase PAK 4 (Homo sapiens, UniProt O96013). The experiment is classed as functional.
For a further experiment, the target named is LIM domain kinase 1 (Homo sapiens, UniProt P53667). As to the kind of experiment: Navigating the Kinome. Panel member name: LIMK1. The experiment is classed as functional.
For experiment [20], the target named is Glycogen synthase kinase-3 alpha (Homo sapiens, UniProt P49840). The experiment is classed as functional.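 Note: GSK3A result taken from a broad kinome-wide kinase panel.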
For experiment [21], the target named is MAP kinase-activated protein kinase 3 (Homo sapiens, UniProt Q16644). The experiment is classed as functional.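 Note: value comes from a kinome-wide profiling panel in which MAPKAPK3 is one of the panel members.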
For experiment [22], the target named is MAP kinase-interacting serine/threonine-protein kinase 2 (Homo sapiens, UniProt Q9HBH9). The experiment is classed as functional.
Experiment [23] has as its target cAMP-dependent protein kinase catalytic subunit PRKX (Homo sapiens, UniProt P51817). The experiment is classed as functional.
For experiment [24], the target named is 3-phosphoinositide-dependent protein kinase 1 (Homo sapiens, UniProt O15530). The experiment is classed as functional.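 Note: value comes from the Navigating the Kinome panel, PDPK1 member.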
Experiment [25] deals with STE20-like serine/threonine-protein kinase (Homo sapiens, UniProt Q9H2G2). The experiment is classed as functional.
Experiment [26] deals with BDNF/NT-3 growth factors receptor (Homo sapiens, UniProt Q16620). The experiment is classed as functional.
Experiment [27] deals with Dual specificity tyrosine-phosphorylation-regulated kinase 1A (Homo sapiens, UniProt Q13627). The experiment is classed as functional.
In experiment [28] the target is Serine/threonine-protein kinase 3 (Homo sapiens, UniProt Q13188). The experiment is classed as functional.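 Note: measured as one member of a kinome-wide kinase panel.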
In a further experiment the target is Wee1-like protein kinase (Homo sapiens, UniProt P30291). The experiment can be described thus: Dose Response Cell-based Assay for Inhibitors of Wee1 Degradation. [Related pubchem assays: 1410, 1321 ]. The experiment is classed as functional.
Experiment [29] has as its target Sphingosine 1-phosphate receptor 1 (Homo sapiens, UniProt P21453). The experiment is classed as functional.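 Note: Tango beta-arrestin reporter U2OS cells stimulated with S1P near its EC80; inhibitor potency meaning antagonism of receptor activation by the natural agonist.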
Experiment [30] in a line: cells.

Chain of Serine/threonine-protein kinase PLK4 (O00444 whole entry): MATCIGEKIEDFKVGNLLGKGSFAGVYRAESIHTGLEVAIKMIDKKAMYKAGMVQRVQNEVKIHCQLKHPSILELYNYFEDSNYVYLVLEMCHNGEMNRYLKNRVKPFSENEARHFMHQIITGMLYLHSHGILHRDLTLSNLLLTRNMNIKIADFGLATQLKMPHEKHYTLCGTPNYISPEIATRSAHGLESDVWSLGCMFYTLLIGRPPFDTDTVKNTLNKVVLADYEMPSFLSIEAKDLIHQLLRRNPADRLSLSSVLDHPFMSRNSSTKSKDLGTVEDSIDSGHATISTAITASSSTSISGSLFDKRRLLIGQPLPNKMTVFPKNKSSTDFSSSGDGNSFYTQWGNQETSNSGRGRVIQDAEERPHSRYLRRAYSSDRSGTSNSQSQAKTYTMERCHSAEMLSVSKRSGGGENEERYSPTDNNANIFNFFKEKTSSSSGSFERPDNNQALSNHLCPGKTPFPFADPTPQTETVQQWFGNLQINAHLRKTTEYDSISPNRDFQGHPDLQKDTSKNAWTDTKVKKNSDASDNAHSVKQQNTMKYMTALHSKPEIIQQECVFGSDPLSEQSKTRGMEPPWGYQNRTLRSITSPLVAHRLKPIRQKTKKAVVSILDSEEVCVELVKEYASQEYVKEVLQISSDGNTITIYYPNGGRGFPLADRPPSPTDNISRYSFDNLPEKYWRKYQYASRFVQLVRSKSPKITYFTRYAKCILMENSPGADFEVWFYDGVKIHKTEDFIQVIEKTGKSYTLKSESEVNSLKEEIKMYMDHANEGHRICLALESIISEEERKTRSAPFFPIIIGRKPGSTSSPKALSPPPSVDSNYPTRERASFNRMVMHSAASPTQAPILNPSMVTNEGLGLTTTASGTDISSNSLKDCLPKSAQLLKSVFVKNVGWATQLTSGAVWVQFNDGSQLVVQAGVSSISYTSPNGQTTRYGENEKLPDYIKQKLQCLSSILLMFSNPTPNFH
Chain of Mitogen-activated protein kinase 8 (P45983 whole entry): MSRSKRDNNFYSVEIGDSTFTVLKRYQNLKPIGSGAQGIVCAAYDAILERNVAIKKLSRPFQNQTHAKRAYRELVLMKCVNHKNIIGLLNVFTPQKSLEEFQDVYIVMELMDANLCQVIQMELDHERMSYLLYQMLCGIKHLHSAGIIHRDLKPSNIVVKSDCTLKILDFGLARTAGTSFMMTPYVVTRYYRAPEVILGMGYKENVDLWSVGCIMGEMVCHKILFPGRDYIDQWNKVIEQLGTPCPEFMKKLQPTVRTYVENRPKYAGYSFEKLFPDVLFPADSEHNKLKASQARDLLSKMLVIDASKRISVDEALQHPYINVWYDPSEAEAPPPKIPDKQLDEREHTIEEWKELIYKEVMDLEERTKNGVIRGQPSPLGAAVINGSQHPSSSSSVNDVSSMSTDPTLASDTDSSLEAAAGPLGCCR
Chain of LIM domain kinase 1 (P53667 whole entry, the tested form may be a part): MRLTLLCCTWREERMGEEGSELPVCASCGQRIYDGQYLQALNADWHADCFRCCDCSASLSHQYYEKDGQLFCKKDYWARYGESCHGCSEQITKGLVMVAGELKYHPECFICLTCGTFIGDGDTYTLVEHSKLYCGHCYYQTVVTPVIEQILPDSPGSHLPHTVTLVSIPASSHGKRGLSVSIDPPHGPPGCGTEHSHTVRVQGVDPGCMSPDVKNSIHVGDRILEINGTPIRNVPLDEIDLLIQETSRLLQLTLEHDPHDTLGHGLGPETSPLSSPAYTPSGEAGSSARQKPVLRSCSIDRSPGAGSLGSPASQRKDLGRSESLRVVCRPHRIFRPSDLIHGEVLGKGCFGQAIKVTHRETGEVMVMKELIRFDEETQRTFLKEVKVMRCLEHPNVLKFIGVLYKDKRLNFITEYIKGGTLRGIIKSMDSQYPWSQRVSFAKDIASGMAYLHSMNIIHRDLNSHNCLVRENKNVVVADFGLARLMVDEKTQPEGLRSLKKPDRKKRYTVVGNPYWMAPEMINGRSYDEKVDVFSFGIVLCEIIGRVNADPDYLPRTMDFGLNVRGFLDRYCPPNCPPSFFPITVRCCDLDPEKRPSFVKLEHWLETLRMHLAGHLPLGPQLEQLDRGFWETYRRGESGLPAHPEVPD
Chain of Hepatocyte nuclear factor 4-alpha (P41235 whole entry): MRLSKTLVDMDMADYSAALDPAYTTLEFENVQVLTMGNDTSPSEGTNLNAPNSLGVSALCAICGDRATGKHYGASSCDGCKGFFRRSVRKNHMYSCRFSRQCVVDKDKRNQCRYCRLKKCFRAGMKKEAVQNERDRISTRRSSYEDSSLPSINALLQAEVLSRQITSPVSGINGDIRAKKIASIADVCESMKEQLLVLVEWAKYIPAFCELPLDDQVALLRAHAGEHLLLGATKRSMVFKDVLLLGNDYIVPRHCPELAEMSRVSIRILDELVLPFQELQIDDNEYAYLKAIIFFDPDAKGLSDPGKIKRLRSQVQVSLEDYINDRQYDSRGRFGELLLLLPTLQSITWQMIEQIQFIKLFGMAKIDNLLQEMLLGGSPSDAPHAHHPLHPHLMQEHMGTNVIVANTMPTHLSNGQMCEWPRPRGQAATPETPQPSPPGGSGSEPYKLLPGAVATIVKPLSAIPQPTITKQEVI
Chain of Proto-oncogene tyrosine-protein kinase receptor Ret (P07949 whole entry): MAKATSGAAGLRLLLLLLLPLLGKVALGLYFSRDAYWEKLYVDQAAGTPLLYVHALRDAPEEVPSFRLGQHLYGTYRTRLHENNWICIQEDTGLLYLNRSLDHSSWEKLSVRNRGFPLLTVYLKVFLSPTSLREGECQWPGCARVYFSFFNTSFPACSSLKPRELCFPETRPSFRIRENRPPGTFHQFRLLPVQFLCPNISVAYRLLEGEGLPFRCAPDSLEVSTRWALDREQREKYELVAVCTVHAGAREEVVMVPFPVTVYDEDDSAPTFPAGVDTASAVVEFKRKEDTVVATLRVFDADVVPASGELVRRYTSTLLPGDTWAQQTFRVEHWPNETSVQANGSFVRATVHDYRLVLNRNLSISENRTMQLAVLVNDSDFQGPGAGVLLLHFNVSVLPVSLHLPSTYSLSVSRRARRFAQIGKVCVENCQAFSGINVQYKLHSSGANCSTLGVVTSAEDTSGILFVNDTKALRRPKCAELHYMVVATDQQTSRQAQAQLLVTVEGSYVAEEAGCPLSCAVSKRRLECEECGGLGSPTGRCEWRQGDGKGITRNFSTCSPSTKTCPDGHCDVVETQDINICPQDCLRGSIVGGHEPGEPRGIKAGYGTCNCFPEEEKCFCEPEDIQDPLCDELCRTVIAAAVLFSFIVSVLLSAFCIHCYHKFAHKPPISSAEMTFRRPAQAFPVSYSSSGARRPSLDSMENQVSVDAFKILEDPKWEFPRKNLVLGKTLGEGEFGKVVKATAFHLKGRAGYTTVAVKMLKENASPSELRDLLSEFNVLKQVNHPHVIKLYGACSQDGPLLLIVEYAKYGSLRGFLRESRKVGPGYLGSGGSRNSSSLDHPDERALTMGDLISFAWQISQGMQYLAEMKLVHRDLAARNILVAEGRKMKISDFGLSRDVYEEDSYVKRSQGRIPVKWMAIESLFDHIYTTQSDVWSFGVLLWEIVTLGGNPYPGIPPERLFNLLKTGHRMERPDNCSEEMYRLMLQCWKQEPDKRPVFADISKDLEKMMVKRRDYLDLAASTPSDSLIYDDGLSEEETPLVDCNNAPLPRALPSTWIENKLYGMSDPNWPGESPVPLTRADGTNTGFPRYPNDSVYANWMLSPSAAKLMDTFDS
Chain of Beta-galactosidase (Q8VNN2 whole entry): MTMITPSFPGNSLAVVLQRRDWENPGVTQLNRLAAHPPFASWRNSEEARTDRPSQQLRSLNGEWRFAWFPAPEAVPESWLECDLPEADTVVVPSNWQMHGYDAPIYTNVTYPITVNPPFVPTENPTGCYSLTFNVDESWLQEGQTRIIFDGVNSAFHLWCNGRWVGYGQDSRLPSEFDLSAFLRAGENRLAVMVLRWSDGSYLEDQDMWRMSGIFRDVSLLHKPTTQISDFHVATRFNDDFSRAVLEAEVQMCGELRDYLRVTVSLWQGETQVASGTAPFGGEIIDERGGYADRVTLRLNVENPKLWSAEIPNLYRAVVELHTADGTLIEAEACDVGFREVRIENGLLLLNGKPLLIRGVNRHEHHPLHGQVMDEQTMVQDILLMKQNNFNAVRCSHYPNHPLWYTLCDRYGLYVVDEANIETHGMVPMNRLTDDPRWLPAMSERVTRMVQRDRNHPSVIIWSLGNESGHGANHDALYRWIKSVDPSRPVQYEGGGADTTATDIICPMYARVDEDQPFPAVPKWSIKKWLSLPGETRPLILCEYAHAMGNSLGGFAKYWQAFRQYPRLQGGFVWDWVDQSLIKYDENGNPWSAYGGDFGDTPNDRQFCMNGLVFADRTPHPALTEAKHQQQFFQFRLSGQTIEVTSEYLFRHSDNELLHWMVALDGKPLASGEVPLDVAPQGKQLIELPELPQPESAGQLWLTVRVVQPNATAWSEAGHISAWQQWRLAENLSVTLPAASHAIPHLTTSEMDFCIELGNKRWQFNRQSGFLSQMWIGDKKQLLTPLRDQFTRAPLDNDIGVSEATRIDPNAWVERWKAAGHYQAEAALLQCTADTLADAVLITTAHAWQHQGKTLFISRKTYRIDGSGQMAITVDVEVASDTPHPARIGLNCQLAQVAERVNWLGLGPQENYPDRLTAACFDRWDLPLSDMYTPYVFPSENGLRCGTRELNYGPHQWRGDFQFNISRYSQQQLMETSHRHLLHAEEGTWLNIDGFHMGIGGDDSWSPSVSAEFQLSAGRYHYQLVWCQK
Chain of Sphingosine 1-phosphate receptor 1 (P21453 whole entry): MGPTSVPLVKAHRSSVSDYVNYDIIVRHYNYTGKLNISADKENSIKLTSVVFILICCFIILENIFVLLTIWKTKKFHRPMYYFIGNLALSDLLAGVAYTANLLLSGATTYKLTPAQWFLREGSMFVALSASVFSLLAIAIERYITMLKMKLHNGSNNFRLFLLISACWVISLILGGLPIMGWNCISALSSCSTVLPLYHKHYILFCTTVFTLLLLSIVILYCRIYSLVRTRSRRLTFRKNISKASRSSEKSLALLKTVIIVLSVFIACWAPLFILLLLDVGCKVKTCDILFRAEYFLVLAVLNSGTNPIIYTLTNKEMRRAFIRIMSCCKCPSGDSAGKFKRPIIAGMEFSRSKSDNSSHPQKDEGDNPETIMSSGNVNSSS

As for `O=C1C(Cl)=C(NCc2cccnc2)C(=O)c2ccccc21`, the EC50 at Hexokinase-1 was 30.8 µM (inactive).

Turning to `Nc1ccc(Br)c2cccnc12`, in “cells [1]”, the IC50 was > 50 µM (active).

With `CN(C)c1ncc(C2=C(Cl)C(=O)C(N3CCCC3)=C(Cl)C2=O)s1`, the half-maximal effective concentration (EC50) in experiment [2] was > 79.4 µM (not active); in [3], 13.7 µM (active). The IC50 at Estrogen receptor beta is 20.6 µM (not active); in experiment [4], 26.4 µM (active); at Beta-galactosidase it was > 66.6 µM (inactive); in [5] it was 89.5 µM (active).

For `Cc1ccc(C(=O)c2c(C)oc3c2C(=O)C(=O)c2ccccc2-3)cc1`, the IC50 in experiment [6] is 5.42 µM (active).

On to `Cc1cnc(NC(=O)c2sc3ccccc3c2Cl)s1`, for which the IC50 in “cells [7]” is > 67.5 µM (inactive).

As for `O=C1NC(=S)SC1=C1C(=O)Nc2ccc(Br)cc21`, the Ki in experiment [8] was > 1.58 µM (inactive); in [9], > 7.94 µM (inactive); in experiment [10] it was > 1.58 µM (inactive); in experiment [11], 1.26 µM (active); in [12], > 1.26 µM (inactive); in experiment [13], 0.501 µM (active). For the same compound, the Ki is > 10 µM (inactive) in [14]; 0.631 µM (active) in [15]; > 2.51 µM (inactive) in [16]; 6.31 µM (active) on SRSF protein kinase 1; 1 µM (active) in experiment [17]; > 1.26 µM (inactive) in experiment [18]. Also, the Ki in experiment [19] is > 5.01 µM (inactive); at LIM domain kinase 1 it was 3.98 µM (active); in experiment [20], 0.316 µM (active); in [21], > 10 µM (inactive); in experiment [22], 0.794 µM (active); in experiment [23] it was > 1.58 µM (inactive). In addition, the Ki in [24] is > 3.98 µM (inactive); in experiment [25], 1.26 µM (active); in experiment [26] it was > 5.01 µM (inactive); in experiment [27], 1 µM (active); in experiment [28], 2 µM (active).

For `Cc1ccc(Nc2cc(C)nn2-c2nc(C)cc(O)n2)cc1`, the EC50 is > 1.84 µM (active) at Wee1-like protein kinase and 0.074 µM (active) in “cells [30]”. In addition, in experiment [29], the IC50 was 0.764 µM (active).
